Experimental data as given in PMC9787607, “A Novel Protocol for the Synthesis of 1,2,4-Oxadiazoles Active against Trypanosomatids and Drug-Resistant Leukemia Cell Lines” (Tropical Medicine and Infectious Disease, 2022).

How the values were obtained:
K562 = experiment: MTT cytotoxicity to CML cell line K562; assay type: cell-based; details: Homo sapiens, 72 h
Description: The CML cell lines K562, Lucena-1 (K562/VCR), and FEPS (K562/DNR) were cultured in RPMI-1640 medium supplemented with 25 mM HEPES and 2 g L^−1 sodium bicarbonate adjusted to pH 7.4 with NaOH, 100 U penicillin and […] streptomycin. All media were supplemented with 10% FBS. Dr. Vivian M. Rumjanek (Instituto de Bioquímica Médica, UFRJ, Brazil) kindly donated Lucena-1 and FEPS cells. Briefly, K562 cells were exposed to increasing concentrations of the chemotherapeutic drugs vincristine sulfate (VCR) and daunorubicin hydrochloride (DNR) (both from Sigma-Aldrich), as described previously. Lucena-1 (K562/VCR) and FEPS (K562/DNR) cells were cultured in the presence of either 60 nM VCR or 500 nM DNR to maintain the MDR phenotypes. For subcultures, cells were harvested every three days followed by washing with cold FBS, and a final concentration of 2 × 10^4 cells mL^−1 was maintained at 37 °C in 5% CO2.
Cell viability was determined by the 3-(4,5-dimethylthiazol-2-yl)-2,5-diphenyltetrazolium (MTT) colorimetric assay. CML cells (2 × 10^4 cells·mL^−1) were incubated for 72 h at 37 °C, followed by treatment with compounds at a range of concentrations (100–1 μM). Negative controls were prepared with 0.5% DMSO. An MTT salt solution was added to each well to a final concentration of 0.5 g·L^−1, and plates were incubated at 37 °C in 5% CO2 for 3 h. After centrifugation, 200 μL DMSO was added to dissolve the dark-blue formazan crystals formed by MTT reduction. Absorbance was measured on a microplate reader at 570 nm, which is directly proportional to formazan contents and indicative of living cells.
(§1) The percent cell or parasite viability was calculated by the formula: % viability = [(A − P)/(N − P)] × 100, A = absorbance of specific well, P = positive control, N = negative control. Determination of half-maximal effective concentrations (EC50), calculated by logarithmic regression, and significance analysis (p < 0.05), using ANOVA and Dunnett’s test, by GraphPad Prism 7.0 software. The results are expressed as the mean and standard deviation (SD) of three independent experiments.

Lucena-1 (K562/VCR) = experiment: cells; assay type: cell-based, human; details: for RR (relative resistance) Lucena-1: (EC50 MDR cells)/(EC50 parental cells), Lucena-1/K562; for EC50: Homo sapiens, Lucena 1, 72 h, read-out: EC50 Lucena-1
Procedure, shortened: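 K562 and its MDR sublines Lucena-1 (maintained in 60 nM VCR) and FEPS (500 nM DNR) seeded at 2 × 10^4 cells/mL in RPMI-1640 with 10% FBS, treated with compounds at 1–100 μM (0.5% DMSO controls). MTT 0.5 g/L for 3 h, A570 read; EC50 by logarithmic regression, three independent experiments.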

[1] = system: L. amazonensis amastigotes; experiment: Anti-L. amazonensis amastigote assessment in RAW 264.7 macrophages; assay type: cell-based, Leishmania amazonensis; details: for EC50: Leishmania amazonensis, RAW264.7, in RAW 264.7, 48 h, read-out: EC50 L. amazonensis intracellular amastigotes; for S.I. (selectivity index): host cell/parasite EC50 ratio, RAW/L. amazonensis
Description: RAW 264.7 cells were seeded in a 96-well microplate (2.0 × 10^4 cells per well) in complete DMEM with 5% FBS and incubated for 3 h at 37 °C in 5% CO2 for cell adhesion. The medium was renewed, and L. amazonensis promastigotes (3.0 × 10^5 parasites per well) were added. After 24 h of incubation at 37 °C in 5% CO2, the cell monolayer was washed with PBS to remove noninternalized parasites, the medium was renewed, and compounds were added at a range of concentrations in triplicate (100–1 μM). Untreated infected cells and noninfected RAW 264.7 cells were used as negative and positive controls, respectively. Vehicle control containing DMEM and 0.3% DMSO was maintained for comparison. After incubation for 48 h at 37 °C in 5% CO2, the medium was removed, and a solution containing 0.02% SDS in PBS (20 µL per well) was added. Macrophage lysis and amastigote release were accompanied under an inverted microscope for 10–15 min. SIM with 12.5% SFB (80 µL per well) was added, parasites were allowed to differentiate into promastigotes for 48 h at 27 °C, and an MTT salt solution in PBS was added (3.0 mM, 20 µL per well). After incubation for 2 h at 27 °C, the MTT formazan was dissolved by adding 120 µL of solubilizing buffer (50% isopropanol, 40% acetate buffer pH 5.4, 10% Triton X). Absorbance was measured using a microplate reader at 570 nm.
as §1

RAW 264.7 cells = experiment: Cytotoxicity to RAW 264.7 cells (MTT); assay type: cell-based, murine; details: Mus musculus, RAW264.7; 48 h, MTT; read-out: EC50 RAW
Description: LLC-MK2 kidney fibroblasts (ATCC) and RAW 264.7 macrophages (ATCC) were cultivated in culture flasks in complete DMEM with 5% FBS at 37 °C in 5% CO2. The LLC-MK2 cell monolayer was detached by treatment with trypsin-EDTA 0.05% for 5 min at 37 °C. The RAW cell monolayer was detached mechanically. In both cases, the cells were centrifuged at 480× g for 6 min and resuspended in complete DMEM with 5% FBS, and the cell density was determined by counting with trypan-blue dye exclusion on Neubauer chambers before use.
RAW 264.7 cells were seeded in a 96-well microplate (2.0 × 10^4 cells per well) in complete DMEM with 5% FBS (120 µL per well). After incubation for 24 h at 37 °C in 5% CO2, the medium was renewed, and compounds were added at a range of concentrations in triplicate (100–1 μM). Untreated cells and cells treated with DMEM and 10% DMSO were used as negative and positive controls, respectively. Vehicle control containing DMEM and 0.3% DMSO was maintained for comparison. After incubation for 48 h at 37 °C in 5% CO2, the medium was renewed, and an MTT solution in PBS was added (3.0 mM, 20 µL per well). After incubation for 2 h at 37 °C in 5% CO2, the supernatant was removed, and MTT formazan was dissolved in DMSO (150 µL per well). Absorbance was measured using a microplate reader at 570 nm.
as §1

COc1cc(/C=C/c2nc(-c3ccccc3)no2)cc(OC)c1OC [Compound 12, (E)-3-phenyl-5-[2-(3,4,5-trimethoxyphenyl)vinyl]-1,2,4-oxadiazole]
EC50 (K562): 18 ± 0.9 µM | RR (relative resistance) Lucena-1 (Lucena-1 (K562/VCR)): 2.42 | EC50 (Lucena-1 (K562/VCR)): 43.5 ± 1.8 µM | EC50 [1]: 50.1 ± 16.4 µM | S.I. (selectivity index) [1]: >2.0 | EC50 (RAW 264.7 cells): > 100 µM

C(=C\c1nc(-c2ccccc2)no1)/c1cccnc1 [Compound 15, (E)-3-phenyl-5-[2-pyridyn-3-yl-vinyl]-1,2,4-oxadiazole]
EC50 (K562): 27.6 ± 5.8 µM | RR (relative resistance) Lucena-1 (Lucena-1 (K562/VCR)): 0.97 | EC50 (Lucena-1 (K562/VCR)): 26.7 ± 7.2 µM

COc1cc(/C=C/c2nc(-c3cc(OC)c(OC)c(OC)c3)no2)cc(OC)c1OC [Compound 23, (E)-3-(3,4,5-trimethoxyphenyl)-5-[2-(3,4,5-trimethoxyphenyl)-vinyl]-1,2,4-oxadiazole]
EC50 (K562): 13.2 ± 2.9 µM | RR (relative resistance) Lucena-1 (Lucena-1 (K562/VCR)): 0.94 | EC50 (Lucena-1 (K562/VCR)): 12.4 ± 2.5 µM | lowest concentration with significant amastigote growth inhibition compared with host cell toxicity ([1]; L. amazonensis vs RAW 264.7, p < 0.05): 16 µM | EC50 [1]: 13.5 ± 3.6 µM | S.I. (selectivity index) [1]: >7.4 | EC50 (RAW 264.7 cells): > 100 µM

COc1cc(-c2noc(/C=C/c3ccc4c(c3)OCO4)n2)cc(OC)c1OC [Compound 24, (E)-3-(3,4,5-trimethoxyphenyl)-5-[2-(3,4-methylenedioxy-phenyl)vinyl]-1,2,4-oxadiazole]
EC50 (K562): 60.4 ± 4.1 µM | RR (relative resistance) Lucena-1 (Lucena-1 (K562/VCR)): 1.37 | EC50 (Lucena-1 (K562/VCR)): 82.6 ± 10.8 µM | EC50 [1]: 24.8 ± 10.4 µM | S.I. (selectivity index) [1]: 2.3 | EC50 (RAW 264.7 cells): 58.8 ± 6.1 µM
